Test results: patent US20060089340A1, “Novel steroids and steroid mimetics; method for their production; and use thereof” (priority 2003, published 2006)

- melting point: 188 to 191 °C
SMILES: COc1ccc2c(c1)CC[C@@H]1[C@@H]2CC[C@]2(C)[C@@H](O)C[C@@H](O)[C@]12F
